Values quoted from earlier work in patent US20250345512A1, “COMBINATION SODIUM-GLUCOSE COTRANSPORTER INHIBITOR (SGLTI) INSULIN THERAPY FOR GLYCEMIC CONTROL IN TYPE 1 DIABETES” (University of Virginia Patent Foundation, priority 2022, published 2025).

Assays:
[1] = system: T1D; conditions: versus placebo over 18 weeks; cited from earlier work
[2] = system: T1D patients; design: adverse effects, including DKA: reference not given here; conditions: cited from earlier work
[3] = 25 mg/day added to experimental AID; 9-14 h outpatient; cited from earlier work
[4] = system: T1D adults; conditions: pooled analysis of 1575 T1D adults; cited from earlier work
[5] = system: T1D patients; conditions: 200 mg and 400 mg; adults with T1D; cited from earlier work

Cc1ccc([C@@H]2O[C@H](CO)[C@@H](O)[C@H](O)[C@H]2O)cc1Cc1ccc(-c2ccc(F)cc2)s1 [canagliflozin]
indices of glycemic variability and treatment satisfaction [1]: improved indices of glycemic variability and improvement in treatment satisfaction

OC[C@H]1O[C@@H](c2ccc(Cl)c(Cc3ccc(O[C@H]4CCOC4)cc3)c2)[C@H](O)[C@@H](O)[C@@H]1O [empagliflozin]
adverse effects ([2]; 2.5 mg): indistinguishable from placebo | adverse effects, including DKA ([2]; 10 mg and 25 mg daily dose): two to three fold higher | body weight, systolic blood pressure, and diastolic blood pressure ([2]; 1707 T1D patients, 26 weeks of SGLT2i treatment): significant reductions | hemoglobin A1c and hypoglycemia ([2]; EASE trials): improvements in hemoglobin Ale without increase in hypoglycemia | need for pre-meal carbohydrate counting [3]: reduce the need for pre-meal carbohydrate counting

CCOc1ccc(Cc2cc([C@@H]3O[C@H](SC)[C@@H](O)[C@H](O)[C@H]3O)ccc2Cl)cc1 [sotagliflozin]
short- and long-term renal hemodynamic changes [4]: reductions in urine albumin:creatinine | glycemic control and weight [5]: improved glycemic control and weight
